Results taken from patent publication US20060074243A1, “Hydroxamic acid and amide compounds and their use as protease inhibitors” (Pharmacia Corporation, priority 2002, published 2006).

Biological target: T1, Human recombinant MMP-2 (Homo sapiens, UniProt P08253)
T1 construct: made in house; host or cells: MMP-2-transfected p2AHT2 cells
T1 sequence (P08253 110-660): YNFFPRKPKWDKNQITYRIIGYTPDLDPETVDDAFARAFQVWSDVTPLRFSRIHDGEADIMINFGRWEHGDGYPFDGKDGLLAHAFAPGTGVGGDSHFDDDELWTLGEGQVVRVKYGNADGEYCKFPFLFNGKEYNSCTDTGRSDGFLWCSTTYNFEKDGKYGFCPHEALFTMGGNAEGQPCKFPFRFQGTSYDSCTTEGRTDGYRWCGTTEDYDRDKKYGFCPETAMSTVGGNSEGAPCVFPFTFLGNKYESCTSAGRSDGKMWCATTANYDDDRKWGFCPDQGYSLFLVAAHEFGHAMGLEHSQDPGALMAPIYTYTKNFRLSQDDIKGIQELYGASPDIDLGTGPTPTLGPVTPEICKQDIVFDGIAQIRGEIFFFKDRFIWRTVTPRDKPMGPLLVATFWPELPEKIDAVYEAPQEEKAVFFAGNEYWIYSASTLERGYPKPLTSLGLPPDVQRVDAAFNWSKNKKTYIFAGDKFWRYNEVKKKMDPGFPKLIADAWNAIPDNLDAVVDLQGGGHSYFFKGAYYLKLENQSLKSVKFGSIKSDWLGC
Assay: In vitro MMP inhibition analysis (fluorogenic peptide substrate cleavage), Ki
Format: biochemical
Description: Several compounds and salts were analyzed in an in vitro assay to determine their ability to inhibit the MMP cleavage of peptide substrates. Inhibition constant (Ki) were calculated from the assayed compound-MMP interactions.
Human recombinant MMP-1, MMP-2, MMP-9, MMP-13, and MMP-14 were used in this assay. All enzymes were prepared in Assignee's laboratories following usual laboratory procedures. Protocols for the preparation and use of these enzymes are available in the scientific literature. See, e.g., Enzyme Nomenclature (Academic Press, San Diego, Calif., 1992) (and the citations therein). See also, Frije et al., J. Biol. Chem., 26(24), 16766-73 (1994).
The MMP-2 proenzyme was purified by gelatin Sepharose chromatography from MMP-2-transfected p2AHT2 cells provided by Dr. Gregory Goldberg of Washington University (St. Louis, Mo.).
All MMPs were activated using 4-aminophenylmercuric acetate (“APMA”, Sigma Chemical, St. Louis, Mo.) or trypsin. MMP-9 also was activated using human recombinant MMP-3 (purified in Assignee's laboratory following standard cloning and purification techniques).
The following fluorogenic, methoxycoumarin-containing polypeptide substrate (I) was used in the MMP inhibition assays: MCA-ArgProLeuGlyLeuDpaAlaArgGluArgNH2 (I) “MCA” is 7-methoxycoumarin-4-yl acetyl. Substrate (I) was prepared Assignee's laboratory. In the absence of MMP inhibitory activity, the substrate is cleaved at the Gly-Leu peptide bond. This cleavage separates the highly fluorogenic peptide from the 2,4-dinitrophenyl quencher, thus resulting in increase of fluorescent intensity.
The stock solutions of the assayed compounds and salts were prepared in […] (DMSO). These stock solutions were diluted in Buffer A (100 mM Tris-HCl, 100 mM NaCl, 10 mM CaCl2, 0.05% polyoxyethylene 23 lauryl ether, pH 7.5) to obtain solutions with different compound concentrations, i.e., assay solutions with different concentrations of the assayed […] compound. The experiment controls contained the same amount of Buffer A/DMSO as the assayed sample, but contained none of the tested compound or salt.
The assays from which the Ki determinations were made were performed as follows. The assayed compound samples were incubated in separate wells of untreated white polystyrene plates (Nunc Nalgene International, Rochester, N.Y.), and analyzed on a Tecan SpectraFlour Plus plate reader. The excitation wavelength was 330 nm, and the emission wavelength—420 nm. All samples (assayed compounds and controls) were incubated in separate plate wells at room temperature for 1 hr in the presence of 4 μM of MMP substrate (I). In the absence of MMP inhibitory activity, substrate (I) was cleaved at the Gly-Leu bond resulting in an increase of relative fluorescence. Inhibition was observed as a reduced rate of this increase in relative fluorescence. […] This protocol is a modification of method by Knight et al., FEBS Lett., 296(3), 263-266 (1992). Apparent inhibitory constants were determined by non-linear regression of reaction velocity as a function of inhibitor and enzyme concentration using Morrison's equation, as described by Kuzmic, Anal. Biochem. 286, 45-50 (2000). Modifications were made in the non-linear regression method to allow a common control reaction rate and effective enzyme concentration to be shared between all dose-response relationships on a given assay plate. Since the substrate concentration was chosen to be at or below the Km, the apparent Ki's from this analysis were reported as Ki's without correction for the influence of substrate.
The above protocols were used to determine Ki constants for the compounds in Examples 2-35 above. All Ki values in Table 1 are given in nM units.

Row | Ki (Table 2) [nM] | Ki (Table 1) [nM] | Compound
1 | 9 |  | CCCCc1ccc(-c2ccc(S(=O)(=O)C3(C(=O)NO)CCN(CC)CC3)cc2)cn1 [Example 139]
2 | 0.037 |  | O=C(NO)C1(S(=O)(=O)c2ccc(-c3ccc(OCCCC(F)(F)F)cn3)cc2)CCOCC1 [Example 144]
3 | 0.02 |  | CCOc1ccc(-c2ccc(S(=O)(=O)C3(C(=O)NO)CCOCC3)cc2)cc1 [Example 163]
4 |  | 0.46 | CCN1CCC(C(=O)NO)(S(=O)(=O)c2ccc(-c3ccc(CCCC(F)(F)F)cn3)cc2)CC1 [Example 53]
5 |  | 0.037 | O=C(NO)C1(S(=O)(=O)c2ccc(-c3ccc(OC(F)(F)C(F)F)cc3)cc2)CCN(CCl)CC1 [Example 38]
6 |  | 0.11 | CCN1CCC(C(=O)NO)(S(=O)(=O)c2ccc(-c3ccc(CCC(C)(F)F)cc3)cc2)CC1 [Example 61]
7 | 0.146 |  | CCN1CCC(C(=O)NO)(S(=O)(=O)c2ccc(-c3ccc(OCCCCO)cc3)cc2)CC1 [Example 118]
8 | 0.37 |  | O=C(NO)C1(S(=O)(=O)c2ccc(-c3ccc(-c4ccccc4F)cn3)cc2)CCN(C2CC2)CC1 [Example 150]
9 | 0.093 |  | CCCCOc1ccc(-c2ccc(S(=O)(=O)C3(C(=O)NO)CCN(CCOC)CC3)cc2)cc1 [Example 119]
10 | 0.15 |  | O=C(NO)C1(S(=O)(=O)c2ccc(-c3ccc(CCC(F)(F)F)cc3)cc2)CCOCC1 [Example 161]
11 |  | 0.586 | O=C(NO)C1(S(=O)(=O)c2ccc(-c3cnc(CCC(F)(F)C(F)(F)F)cn3)cc2)CCOCC1 [Example 55]
12 |  | 0.21 | COCCN1CCC(C(=O)NO)(S(=O)(=O)c2ccc(-c3ccc(CCC(F)(F)C(F)(F)F)cc3)cc2)CC1 [Example 46]
13 | 0.72 |  | O=C(NO)C1(S(=O)(=O)c2ccc(-c3ccc(-c4ccc(OC(F)(F)F)cc4)cn3)cc2)CCN(C2CC2)CC1 [Example 145]
14 | 5.67 |  | CCc1cnc(-c2ccc(S(=O)(=O)C3(C(=O)NO)CCOCC3)cc2)nc1 [Example 122]
15 |  | 1.65 | CCN1CCC(C(=O)NO)(S(=O)(=O)c2ccc(-c3cnc(CCC(C)(F)F)cn3)cc2)CC1 [Example 64]
16 | 53.7 |  | O=C(NO)C1(S(=O)(=O)c2ccc(-c3cnc(CCC(F)(F)C(F)(F)F)nc3)cc2)CCOCC1 [Example 142]
17 |  | 2.36 | O=C(NO)C1(S(=O)(=O)c2ccc(-c3cnc(CCC4CC4)cn3)cc2)CCOCC1 [Example 49]
18 | 0.89 |  | O=C(NO)C1(S(=O)(=O)c2ccc(-c3cnc(N4CCCCC4)cn3)cc2)CCOCC1 [Example 131]
19 | 0.074 |  | CCN1CCC(C(=O)NO)(S(=O)(=O)c2ccc(-c3ccc(-c4ccncc4)cc3)cc2)CC1 [Example 136]
20 |  | 0.15 | O=C(NO)C1(S(=O)(=O)c2ccc(-c3ccc(CCCC(F)F)cc3)cc2)CCOCC1 [Example 57]
21 |  | 0.11 | CC(F)(F)CCc1ccc(-c2ccc(S(=O)(=O)C3(C(=O)NO)CCN(C4CC4)CC3)cc2)cc1 [Example 59]
22 | 0.218 |  | O=C(NO)C1(S(=O)(=O)c2ccc(-c3cnc(N4CCCC4)cn3)cc2)CCOCC1 [Example 138]
23 | 0.041 |  | O=C(NO)C1(S(=O)(=O)c2ccc(-c3ccc(-c4ccncc4)cc3)cc2)CCOCC1 [Example 141]
24 |  | 0.0708 | O=C(NO)C1(S(=O)(=O)c2ccc(-c3ccc(CCC(F)(F)C(F)(F)F)cn3)cc2)CCOCC1 [Example 36]
25 |  | 0.0611 | O=C(NO)C1(S(=O)(=O)c2ccc(-c3ccc(OC(F)(F)C(F)F)cc3)cc2)CCOCC1 [Example 68]
26 | 0.18 |  | O=C(NO)C1(S(=O)(=O)c2ccc(-c3ccc(-n4cncn4)cc3)cc2)CCOCC1 [Example 126]
27 | 0.1 |  | COCCN1CCC(C(=O)NO)(S(=O)(=O)c2ccc(-c3ccc(-c4ccccc4)cc3)cc2)CC1 [Example 152]
28 | 1.13 |  | O=C(NO)C1(S(=O)(=O)c2ccc(-c3noc(-c4ccc(F)cc4)n3)cc2)CCOCC1 [Example 134]
29 | 32.9 |  | CCc1csc(Nc2ccc(-c3ccc(S(=O)(=O)C4(C(=O)NO)CCOCC4)cc3)cc2)n1 [Example 124]
30 | 3.11 |  | O=C(NO)C1(S(=O)(=O)c2ccc(-c3cnc(C4CCCC4)cn3)cc2)CCOCC1 [Example 162]
